# Test results from patent publication EP0847397B1, “WATER-SOLUBLE C-RING ANALOGUES OF 20 (S)-CAMPTOTHECIN” (DR. REDDY'S RESEARCH FOUNDATION, priority 1996, dated 1997).
# Key:
# [1] = Solubility by routine method; type: physicochemical; settings: deionized water, 37°C
# Protocol: 5. Solubility by routine method:
# Compound was suspended in 5 ml of deionized water and heated to 37°C. for 10 min. Then, the solution was filtered and the filtrate was evaporated to drying using methanol and the solid residue was weighed.
# [2] = MTD in Swiss albino mice (single dose); settings: mouse, in vivo, 14 days observation
# Protocol: 1. MTD in Swiss albino mice:
# Each Swiss Albino mouse is injected with a single does of the test compound on a day designated as Day 1: Doses that were tested are 400, 200, 100, 50, 25, 12.5, 8.3, 6.25 and 3.13 mg/kg body weight. […] (As per the protocol followed by the U.S. National Cancer Institute)
# [3] = test system: H 460; assay: NCI in vitro 60 human tumor cell line assay; type: cell-based; settings: Homo sapiens, NCI-H460, 48 h, read-out: Total Growth Inhibition (TGI)
# Protocol: (§3) Each test compound was screened against a battery of 60 human cell lines obtained from eight organs. In a typical procedure, the cell suspensions that were diluted according to the particular cell type and the expected target cell density (5000-40,000 cells per well based on cell growth characteristics) were added into 96-well microtiter plates. Inoculates were allowed a preincubation period of 24h at 37°C. for stabilization. Dilutions at twice the intended test concentrations were added at time zero in 100-µl aliquots to microtiter plate wells. Usually test compounds were evaluated at five 10-fold dilutions. The highest well concentration used in the test is 10^-4M. The cells are then incubated in the presence of drug (the test compound) for further 48h in 5% CO2 atmosphere and 100% humidity. At the end of this time, the adherent cells are fixed to the plate by means of trichloroacetic acid, and after a number of washes, the cell layer is treated with the protein stain Sulforhodamine B. The optical density which is proportional to protein mass, is then read by automated spectrophotometric plate readers at a wavelength of 515 nm. Readings are transferred to a microcomputer and final reports are generated using especially developed software.
# [4] = Pharmacokinetics at MTD; type: in vivo, Swiss albino mice; settings: mouse, ip, intraperitoneal, plasma; for AUC(0-t): DMSO:water (50:50), read-out: AUC0-1
# Protocol: 3. Pharmacokinetics at MTD:
# All studies were carried out in Swiss albino mice in the weight range 35-40 g. The animals were fasted overnight prior to dosage of the drug and were fed 3 hours after dosing. The animals were dosed intraperitonially as a solution in DMSO:water (50:50; v/v). Blood samples were drawn from orbital sinus at 1, 2, 4, 6 and 8 hours after administration of the dose into heparinized tubes, centrifuged at 13000 RPM for 10 min. Plasma samples were separated and analyzed by HPLC. To 50 µl of the sample, 100 µl of chilled acidified methanol was added and mixed to precipitate proteins. The sample was centrifuged at 13,000 RPM for 10 min. 100 µl of supernatant was made up to 200 µl with methanol:water (50:50; v/v) and 100 µl was injected on HPLC. Peak area of the drug was used for quantification. Calibration, control and recovery samples were prepared by spiking 50 µl of blank plasma with known amounts of the drug and processed in the same manner as the samples. (J. Natl. Cancer Inst., 1996; 88:817-824).
# [5] = Solubility by HPLC method; type: physicochemical; settings: aqueous buffer, 0.1M sodium acetate buffer pH 5.0, 24 hours, room temperature
# Protocol: 4. Solubility by HPLC method:
# Excess of compound was soaked in 0.5 ml of 0.1M sodium acetate buffer at pH 5.0 for 24 hours at room temperature. The solution was filtered through 0.45 micron PVDF syringe filter (Gelman Sciences). The filtrate was injected into HPLC at different volumes (10 & 20 µl). Chromatograms were recorded. Responses recorded were extrapolated from the calibration curve and the solubility of the compound was calculated. (J. Med. Chem., 1995; 38: 400)
# [6] = test system: HCC 2998; assay: NCI in vitro 60 human tumor cell line assay; type: cell-based; settings: Homo sapiens, HCC 2998, 48 h, read-out: Total Growth Inhibition (TGI)
# Protocol: as §3
# [7] = test system: UACC-62; assay: In vitro activity after 1 hour exposure (Sulforhodamine B); type: cell-based; settings: Homo sapiens; UACC-62, 1 hour exposure then 48 hours drug-free
# Protocol: (§1) 6. In vitro activity after 1 hour exposure:
# (§2) Grow the cells in 15 ml of Complete Medium (RPM1-1640 with 10% Fetal bovine serum and 0.2% NaHCO3) for 3-5 days to obtain a cell number of 10^6 cells/flask. The medium is removed and the attached cells are washed with Phosphate Buffered Saline (PBS). 1 ml of 0.1% Trypsin-EDTA is added and incubated for 5 min at 37°C. Tap the flasks gently and add 5 ml of complete medium. Remove cell suspension and centrifuge at 2000 rpm for 5 min. Discard the supernatant and suspend the pellet in 5 ml of complete medium. Count the cell number in a haemocytometer. Dilute the cell suspension to 10,000 cells/100 µl in complete medium. Plate out 100 µl of cell suspension in each of 96 well microtitre plate and incubate for 24 hrs at 37°C. and 5% CO2. Terminate the reference blank (plated out separately) with 25 µl of 50% cold Trichloroacetic acid (TCA). Incubate for 1 hour at 4°C. Wash the plate (five times) with deionized water. Air dry and preserve the plate at 4°C. for determination of T0 value. Prepare suitable dilution of the test compound in complete medium and add 100 µl to each well to maintain the final concentration ranging between 10^-4M and 10^-8M. Incubate for 1 hr at 37°C. and 5% CO2. Centrifuge the microtitre plate at 1000 rpm for 5 min. Remove the supernatant. Wash the cells twice with 100 µl of PBS to remove the traces of test compound. Add 200 µl of complete medium to each well and incubate for 48 hours at 37°C. and 5% CO2. Terminate the cell growth with the addition of 50 µl of 50% cold TCA. Incubate the plate for 1 hr at 4°C. Wash the plates with deionized water (five times) and air dry. Add 100 µl of Sulforhodamine B solution (0.4% in 1% acetic acid) to each well. Keep at room temperature for 15 minutes. Wash (five times) with 1% acetic acid and air dry. Add 100 µl of 10mM Trizma base (Sigma), shake gently on plate shaker for 15 minutes and read the optical density at 490 nm in Spectrophotometric plate reader. (as per the protocol followed by the U.S. National Cancer Institute.
# [8] = test system: DU-145; assay: as above; type: cell-based; settings: Homo sapiens; DU-145, 1 hour exposure then 48 hours drug-free
# Protocol: as §1, §2
# [9] = test system: ACHN; assay: as above; type: cell-based; settings: Homo sapiens, 1 hour exposure then 48 hours drug-free
# Protocol: as §1, §2
# [10] = test system: MCF-7/ADR; assay: as above; type: cell-based; settings: Homo sapiens, NCI/ADR-RES, 1 hour exposure then 48 hours drug-free
# Protocol: as §1, §2
# [11] = test system: OVCAR-8; assay: as above; type: cell-based; settings: Homo sapiens; OVCAR-8, 1 hour exposure then 48 hours drug-free
# Protocol: as §1, §2
# [12] = test system: HOP-62; assay: as above; type: cell-based; settings: Homo sapiens; HOP-62, 1 hour exposure then 48 hours drug-free
# Protocol: as §1, §2
# [13] = test system: SF-268; assay: as above; type: cell-based; settings: Homo sapiens
# Protocol: as §1, §2
# [14] = test system: HCT 15; assay: NCI in vitro 60 human tumor cell line assay; type: cell-based; settings: HCT-15, 48 h, read-out: Total Growth Inhibition (TGI)
# Protocol: as §3
# [15] = test system: HT 29; assay: NCI in vitro 60 human tumor cell line assay; type: cell-based; settings: Homo sapiens, HT-29, 48 h, read-out: Total Growth Inhibition (TGI)
# Protocol: as §3
SMILES,solubility at 10 min [1] [µg/mL],MTD at 336 h ([2]; intravenous) [mg/kg],"MTD at 336 h ([2]; ip, intraperitoneal) [mg/kg]",IC (TGI) [3] [µM],AUC(0-t) [4] [µM·h],Cmax [4] [µM],Tmax [4] [h],half-life [4] [h],k el [4] [s⁻¹],solubility at 24 h [5] [µg/mL],IC (TGI) [6] [µM],GI50 [7] [µM],GI50 [8] [µM],GI50 [9] [µM],GI50 [10] [µM],GI50 [11] [µM],GI50 [12] [µM],GI50 [13] [µM],IC (TGI) [14] [µM],IC (TGI) [15] [µM]
"CC[C@@]1(O)C(=O)OCc2c1cc1n(c2=O)C(OCCO)c2cc3ccccc3nc2-1 (stereo partly shown) [Example 26, 5-(2'-Hydroxyethoxy)camptothecin]",6000,25 to 50,200,1,562 ± 41.8,264 ± 21.9,1,1.84 ± 0.3,0.000106,800,10.5,0.075,50,> 100,> 100,> 100,> 100,> 100,36.3,46
"CC[C@@]1(O)C(=O)OCc2c1cc1n(c2=O)C(OCC(F)(F)F)c2cc3cc(O)ccc3nc2-1 (stereo partly shown) [Example 27, 10-Hydroxy-5-trifluoroethoxycamptothecin]",2000 to 3000,200,400,5.09,23.1 ± 2.7,7.4 ± 0.8,1.33 ± 0.6,2.38 ± 0.2,8.06e-05,500,7.67,9,0.35,8,60,75,2,> 100,20,2.41
